According to patent publication US6797824B2, “Certain 4-aminomethyl-2-substituted imidazole derivatives and 2-aminomethyl-4-substituted imidazole derivatives; new classes of dopamine receptor subtype specific ligands” (Neurogen Corporation, priority 1990, dated 2004):
Counter-ions that a name gives are not always drawn.

melting point [°C]	SMILES
169 to 171	CC(c1cnc(-c2ccccc2)[nH]1)N1CCC(Cc2ccccc2)CC1 (stereo not drawn) (as salt: hydrochloride) [Compound 91, 2-phenyl-4(5)-[1-((4-benzyl-piperidin-1-yl)-ethan-1-yl)]imidazole dihydrochloride salt]
133 to 135	c1ccc(-c2ncc(CCCN3CCN(c4ncccn4)CC3)[nH]2)cc1 [Compound 125, 2-phenyl-4(5)-[(4-(2-pyrimidinyl)-piperazin-1-yl)-propan-1-yl]-imidazole]
234 to 236	c1ccc(CC2CCN(Cc3cnc(-c4ccccc4)[nH]3)CC2)cc1 (as salt: hydrochloride) [Compound 25, 2-Phenyl-4(5)-[(4-benzyl-piperidin-1-yl)methyl]-imidazole dihydrochloride]
81 to 83	c1ccc(CC2CCN(Cc3cnc(-c4cccc5ccccc45)[nH]3)CC2)cc1 [Compound 92, 2-(1-naphthyl)-4(5)-[(4-benzyl-piperidin-1-yl)-methyl]imidazole]
105 to 107	COc1ccccc1N1CCN(Cc2cnc(-c3ccccc3)[nH]2)CC1 [Compound 19, 2-phenyl-4(5)-[(4-(2-methoxyphenyl)-piperazin-1-yl)-methyl]imidazole]
196 to 199	COc1ccc(-c2ncc(CN3CCC(c4ccccc4)CC3)[nH]2)cc1 (as salt: hydrochloride) [Compound 47, 2-(4-Methoxyphenyl)-4(5)-[(4-phenyl-piperidin-1-yl)-methyl]-imidazole dihydrochloride]
142 to 144	Fc1ccccc1-c1nc(CN2CCC(c3ccccc3)CC2)c[nH]1 (as salt: maleate) [Compound 52, 2-(2-Fluorophenyl)-4(5)[(4-phenyl-piperidin-1-yl)-methyl]-imidazole dimaleate]
238 to 240	c1ccc(-c2nc(CN3CCC(c4ccccc4)CC3)c[nH]2)cc1 (as salt: hydrochloride) [Compound 26, 2-Phenyl-4(5)-[(4-phenyl-piperidin-1-yl)-methyl]-imidazole dihydrochloride]
198 to 199	COc1ccccc1N1CCN(Cc2cnc(-c3cccc(Cl)c3)[nH]2)CC1 (as salt: hydrochloride) [Compound 22, 2-(3-Chlorophenyl)-4(5)-[(4-(2-methoxyphenyl)-piperazin-1-yl)-methyl]-imidazole dihydrochloride]
196 to 199	Ic1nc(-c2ccccc2)[nH]c1CN1CCN(c2ncccn2)CC1 (as salt: hydroiodid) [Compound 90, 2-phenyl-5-iodo-4(5)-[(4-(2-pyrimidinyl)piperazin-1-yl)methyl]-imidazole hydroiodide salt]
235 to 236	O=C(/C=C/c1cnc(-c2ccccc2)[nH]1)N1CCN(c2ncccn2)CC1 [Compound 119, 2-phenyl-4(5)-[(4(2-pyrimidinyl)-piperazin-1-yl)-propen-1-oyl]-imidazole]
194	COc1cc(Br)cc(-c2ncc(CN(C)C)[nH]2)c1OC (as salt: hydrochloride) [Compound 16, 2-(5-Bromo-2,3-dimethoxyphenyl)-4(5)-[(N,N-dimethyl)aminomethyl]-imidazole dihydrochloride]
95 to 97	COc1ccccc1N1CCN(Cc2cnc(-c3ccc(F)cc3)[nH]2)CC1 [Compound 20, 2-(4-Fluorophenyl)-4(5)-[(4-(2-methoxyphenyl)-piperazin-1-yl)-methyl]-imidazole]
217 to 218	COc1ccccc1N1CCN(Cc2cnc(-c3cccc(OC)c3OC)[nH]2)CC1 (as salt: hydrochloride) [Compound 21, 2-(2,3-Dimethoxyphenyl)-4(5)-[(4-(2-methoxyphenyl)-piperazin-1-yl)-methyl]-imidazole dihydrochloride]
155 to 157	c1ccc(CC2CCN(Cc3ncc(-c4ccccc4)[nH]3)CC2)cc1 (as salt: fumarate) [Compound 77, 4phenyl-2(5)-[(4-benzylpiperidin-1-yl)-methyl]imidazole]
189 to 191	c1ccc(CC2CCN(CC3CCCc4[nH]c(-c5ccccc5)nc43)CC2)cc1 (stereo not drawn) [Compound 138, 2-phenyl-7-[(4-benzyl-piperidin-1-yl)-methyl]-4,5,6,7-tetrahydrobenzimidazole]
61 to 64	CCc1ccc(OC)c(-c2ncc(CN3CCN(c4ccccc4OC)CC3)[nH]2)c1 (as salt: hydrochloride) [Compound 55, 2-(5-Ethyl-2-methoxyphenyl-4(5)-[(4-(2-methoxyphenyl)-piperazin-1-yl)-methyl]-imidazoledihydrochloride]
231 to 232	O=C(c1cnc(-c2ccccc2)[nH]1)N1CCN(c2ncccn2)CC1 [Compound 144, 2-phenyl-4(5)-N-[(4-(2-pyrimidinyl)-piperazin-1-yl)-carboxamido]-imidazole]
142 to 145	Cc1ccc(Cl)cc1N1CCN(Cc2cnc(-c3ccccc3)[nH]2)CC1 (as salt: hydrochloride) [Compound 60, 2-Phenyl-4(5)-[(4(5-chloro-2-methylphenyl)-piperazin-1yl-)-methyl]imidazole dihydrochloride]
138 to 143	COc1ccc(Cl)cc1-c1ncc(CN2CCN(c3ccccc3OC)CC2)[nH]1 (as salt: hydrochloride) [Compound 43, 2-(5-Chloro-2-methoxyphenyl)-4(5)-[(4-(2-methoxyphenyl)-piperazin-1-yl)-methyl]-imidazole dihydrochloride]
177 to 179	O=C(c1ccccc1)c1ncc(CN2CCN(c3ncccn3)CC2)[nH]1 [Compound 116, 2-(benzoyl)-4(5)-[(4-(2-pyrimidinyl)-piperazin-1-yl)-methyl]-imidazole]
221 to 225	c1ccc(-c2nc(-c3ccccc3)c(CN3CCN(c4ncccn4)CC3)[nH]2)cc1 [Compound 132, 2,5-diphenyl-4(5)-[(4-(2-pyrimidinyl)piperazin-1-yl)methyl]-imidazole]
130 to 135	C[C@@H]1CN(c2ncccn2)C[C@H](C)N1Cc1cnc(-c2ccccc2)[nH]1 [Compound 140, 2-phenyl-4(5)-[(4-(2-pyrimidinyl)-cis-2,6-dimethylpiperazin-1-yl)-methyl]-imidazole]
64 to 68	Fc1ccc(N2CCN(Cc3cnc(-c4ccccc4)[nH]3)CC2)cc1 (as salt: hydrochloride) [Compound 56, 2-Phenyl-4(5)-[(4(4-fluorophenyl)-piperazin-1yl-)methyl]imidazole dihydrochloride]
142 to 144	c1ccc(-c2ncc(CCN3CCN(c4ncccn4)CC3)[nH]2)cc1 [Compound 143, 2-phenyl-4(5)-[(4-(2-pyrimidinyl)-piperazin-1-yl)-ethan-1-yl]-imidazole]
143 to 148	O=C(CCc1cnc(-c2ccccc2)[nH]1)N1CCN(c2ncccn2)CC1 [Compound 122, 2-phenyl-4(5)-[(4-(2-pyrimidinyl)-piperazin-1-yl)-propan-1-oyl]-imidazole]
242 to 243	COc1ccc(Br)cc1-c1ncc(CN(C)C)[nH]1 (as salt: hydrochloride) [Compound 1, 2-(5-bromo-2-methoxyphenyl)-4(5)-[(N,N-dimethyl)aminomethyl]-imidazole dihydrochloride]
